These results are taken from article PMC4162805 (European journal of medicinal chemistry, 2014).

“Also recorded” adds a separate entry of the source.

Test [1] concerns the target T1, κ-opioid receptor (KOR) (Homo sapiens, UniProt P41145). The test is classed as binding.
The next test addresses hKOR receptor (Homo sapiens, UniProt P41145). Kind of test: cell-based.
Another test deals with δ-opioid receptor (DOR) (Homo sapiens, UniProt P41143). Kind of test: Radioligand binding at DOR against [3H]DADLE.
The target of test [2] is T1, κ-opioid receptor (KOR). Particulars: previously observed; cited from earlier work.

As a reminder, the IC50 is the concentration that gives 50% inhibition.

T1 sequence (P41145 whole entry): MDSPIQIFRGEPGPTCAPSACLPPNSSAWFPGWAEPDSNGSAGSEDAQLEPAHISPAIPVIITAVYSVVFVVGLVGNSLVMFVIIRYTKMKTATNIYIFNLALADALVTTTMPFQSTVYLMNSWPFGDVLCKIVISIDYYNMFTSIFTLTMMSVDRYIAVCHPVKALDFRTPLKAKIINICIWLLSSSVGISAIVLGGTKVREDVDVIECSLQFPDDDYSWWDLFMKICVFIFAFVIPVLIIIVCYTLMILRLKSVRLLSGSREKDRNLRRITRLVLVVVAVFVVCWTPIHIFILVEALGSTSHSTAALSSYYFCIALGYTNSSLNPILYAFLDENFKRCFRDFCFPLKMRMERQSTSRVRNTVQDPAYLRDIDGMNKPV
hKOR receptor, sequence (P41145 whole entry): as above
δ-opioid receptor (DOR), sequence (P41143 whole entry): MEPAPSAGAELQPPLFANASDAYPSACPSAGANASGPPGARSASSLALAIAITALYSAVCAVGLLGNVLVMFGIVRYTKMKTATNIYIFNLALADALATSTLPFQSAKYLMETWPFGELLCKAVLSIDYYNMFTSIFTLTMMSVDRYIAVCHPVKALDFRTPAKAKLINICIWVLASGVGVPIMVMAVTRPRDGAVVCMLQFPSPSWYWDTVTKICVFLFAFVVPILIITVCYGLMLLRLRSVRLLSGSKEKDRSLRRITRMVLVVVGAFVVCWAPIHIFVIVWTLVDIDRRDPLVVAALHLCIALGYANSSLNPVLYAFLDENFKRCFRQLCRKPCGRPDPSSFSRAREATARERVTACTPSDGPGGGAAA

As for `C=CC(=O)O[C@H]1C[C@@H](C(=O)OC)[C@]2(C)CC[C@H]3C(=O)O[C@H](c4ccoc4)C[C@]3(C)[C@H]2C1=O` [4a, 2-O-Acryloylsalvinorin B], on κ-opioid receptor (KOR) [1], the “Selectivity DOR/KOR” value is given as above 552 and the “fold reduced KOR affinity compared to 1” value was found to be 6 fold. In addition, the “fold lower cAMP inhibition level (efficacy) than 1” value at hKOR receptor turned out to be 380 ×. Take `C=C(C)C(=O)O[C@H]1C[C@@H](C(=O)OC)[C@]2(C)CC[C@H]3C(=O)O[C@H](c4ccoc4)C[C@]3(C)[C@H]2C1=O` [4b, 2-O-Methacryloylsalvinorin B]: the “Selectivity MOR/KOR” value at κ-opioid receptor (KOR) [1] was above 293. On to `COC(=O)[C@@H]1C[C@H](OC(=O)C=C(C)C)C(=O)[C@H]2[C@@]1(C)CC[C@H]1C(=O)O[C@H](c3ccoc3)C[C@]21C` [4c, 2-O-(3′,3′-Dimethylacryloyl)salvinorin B], for which the “fold reduced KOR affinity compared to 4a” value at κ-opioid receptor (KOR) [1] was 21 fold.

Turning to `C=C(C)CC(=O)O[C@H]1C[C@@H](C(=O)OC)[C@]2(C)CC[C@H]3C(=O)O[C@H](c4ccoc4)C[C@]3(C)[C@H]2C1=O` [4d, 2-O-(3′-Methylbut-3′-enoyl)salvinorin B], on κ-opioid receptor (KOR) [1], the “Selectivity DOR/KOR” value is listed as above 1666 and the “fold increased KOR affinity compared to 4a” value is recorded as 3 fold. Take `C/C=C/C(=O)O[C@H]1C[C@@H](C(=O)OC)[C@]2(C)CC[C@H]3C(=O)O[C@H](c4ccoc4)C[C@]3(C)[C@H]2C1=O` [4e, 2-O-Crotonoylsalvinorin B]: the “Selectivity DOR/KOR” value on κ-opioid receptor (KOR) [1] is above 395. `C/C=C(\C)C(=O)O[C@H]1C[C@@H](C(=O)OC)[C@]2(C)CC[C@H]3C(=O)O[C@H](c4ccoc4)C[C@]3(C)[C@H]2C1=O` [4g, 2-O-(2′,3′-Dimethylacryloyl)salvinorin B]: on κ-opioid receptor (KOR) [1], the “Selectivity DOR/KOR” value is above 65, the “Selectivity MOR/KOR” value was above 65 and the “fold reduced KOR affinity compared to 4a” value is 8 fold.

`COC(=O)[C@@H]1C[C@H](OC(=O)/C=C/c2ccccc2)C(=O)[C@H]2[C@@]1(C)CC[C@H]1C(=O)O[C@H](c3ccoc3)C[C@]21C` [5a, 2-O-Cinnamoylsalvinorin B]: at κ-opioid receptor (KOR) [1], the “fold increased KOR affinity compared to 4a” value is reported as 2 fold. For the same compound, at hKOR receptor, half-maximal inhibition (IC50) was put at 7 nM and the “fold lower cAMP inhibition level (efficacy) than 1” value was 20 ×. As to `COC(=O)[C@@H]1C[C@H](OC(=O)/C=C/c2ccccc2OC)C(=O)[C@H]2[C@@]1(C)CC[C@H]1C(=O)O[C@H](c3ccoc3)C[C@]21C` [5b, 2-O-(2″-Methoxycinnamoyl)salvinorin B], on κ-opioid receptor (KOR) [1], the “Selectivity DOR/KOR” value is listed as above 154 and the “Selectivity MOR/KOR” value is recorded as above 154.

Take `COC(=O)[C@@H]1C[C@H](OC(=O)/C=C/c2ccc(OC)cc2)C(=O)[C@H]2[C@@]1(C)CC[C@H]1C(=O)O[C@H](c3ccoc3)C[C@]21C` [5c, 2-O-(4″-Methoxycinnamoyl)salvinorin B]: on κ-opioid receptor (KOR) [1], the “Selectivity DOR/KOR” value is on record as above 74 and the “Selectivity MOR/KOR” value is above 74. For `COC(=O)[C@@H]1C[C@H](OC(=O)/C=C/c2cc(OC)ccc2OC)C(=O)[C@H]2[C@@]1(C)CC[C@H]1C(=O)O[C@H](c3ccoc3)C[C@]21C` [5d, 2-O-(2″,5″-Dimethoxycinnamoyl)salvinorin B], at κ-opioid receptor (KOR) [1], the “Selectivity DOR/KOR” value is on record as above 17 and the “Selectivity MOR/KOR” value is given as above 17. In the case of `COC(=O)[C@@H]1C[C@H](OC(=O)/C=C/c2ccc(OC)cc2OC)C(=O)[C@H]2[C@@]1(C)CC[C@H]1C(=O)O[C@H](c3ccoc3)C[C@]21C` [5e, 2-O-(2″,4″-Dimethoxycinnamoyl)salvinorin B], at κ-opioid receptor (KOR) [1], the “Selectivity DOR/KOR” value is recorded as above 62 and the “Selectivity MOR/KOR” value was above 62. On to `COC(=O)[C@@H]1C[C@H](OC(=O)/C=C/c2cc(OC)c(OC)c(OC)c2)C(=O)[C@H]2[C@@]1(C)CC[C@H]1C(=O)O[C@H](c3ccoc3)C[C@]21C` [5f, 2-O-(3″,4″,5″-Trimethoxycinnamoyl)salvinorin B], for which the “affinity for KOR (in words)” value at κ-opioid receptor (KOR) [1] was “no appreciable affinity; also recorded: no substantial affinity”. Besides, the “affinity for DOR (in words)” value at δ-opioid receptor (DOR) was “no appreciable affinity”. For `COC(=O)[C@@H]1C[C@H](OC(=O)/C=C/c2ccc3c(c2)OCO3)C(=O)[C@H]2[C@@]1(C)CC[C@H]1C(=O)O[C@H](c3ccoc3)C[C@]21C` [5g, 2-O-(3″,4″-Dioxymethylenecinnamoyl)salvinorin B], on κ-opioid receptor (KOR) [1], the “Selectivity DOR/KOR” value is reported as above 31. For `COC(=O)[C@@H]1C[C@H](OC(=O)/C=C/c2ccccc2[N+](=O)[O-])C(=O)[C@H]2[C@@]1(C)CC[C@H]1C(=O)O[C@H](c3ccoc3)C[C@]21C` [5h, 2-O-(2″-Nitrocinnamoyl)salvinorin B], at κ-opioid receptor (KOR) [1], the “Selectivity DOR/KOR” value was above 67 and the “Selectivity MOR/KOR” value was above 67. In the case of `COC(=O)[C@@H]1C[C@H](OC(=O)/C=C/c2ccc([N+](=O)[O-])cc2)C(=O)[C@H]2[C@@]1(C)CC[C@H]1C(=O)O[C@H](c3ccoc3)C[C@]21C` [5i, 2-O-(4″-Nitrocinnamoyl)salvinorin B], at κ-opioid receptor (KOR) [1], the “Selectivity DOR/KOR” value is above 35 and the “Selectivity MOR/KOR” value is above 35. For the compound `COC(=O)[C@@H]1C[C@H](OC(=O)/C=C/c2ccccc2C(F)(F)F)C(=O)[C@H]2[C@@]1(C)CC[C@H]1C(=O)O[C@H](c3ccoc3)C[C@]21C` [5j, 2-O-(2″-Trifluoromethylcinnamoyl)salvinorin B], at κ-opioid receptor (KOR) [1], the “Selectivity DOR/KOR” value is given as above 77 and the “Selectivity MOR/KOR” value was above 77. Regarding `COC(=O)[C@@H]1C[C@H](OC(=O)/C=C/c2cc(C(F)(F)F)ccc2C(F)(F)F)C(=O)[C@H]2[C@@]1(C)CC[C@H]1C(=O)O[C@H](c3ccoc3)C[C@]21C` [5l, 2-O-[2″,5″-bis(Trifluoromethyl)cinnamoyl]salvinorin B], at κ-opioid receptor (KOR) [1], the “Selectivity DOR/KOR” value is listed as below 0.58 and the “affinity for KOR (in words)” value is “no substantial affinity”. Consider `COC(=O)[C@@H]1C[C@H](OC(=O)/C=C/c2cccnc2)C(=O)[C@H]2[C@@]1(C)CC[C@H]1C(=O)O[C@H](c3ccoc3)C[C@]21C` [5m, 2-O-[3′-(3″-Pyridyl)acryloyl]salvinorin B], for which, on κ-opioid receptor (KOR) [1], the “Selectivity DOR/KOR” value is given as below 0.48, the “Selectivity MOR/KOR” value is below 0.03 and the “affinity for KOR (in words)” value is “no substantial affinity”.

For `COC(=O)[C@@H]1C[C@H](OC(=O)CSC#N)C(=O)[C@H]2[C@@]1(C)CC[C@H]1C(=O)O[C@H](c3ccoc3)C[C@]21C` [RB-64, 22-thiocyanatosalvinorin A], the “wash-resistant irreversible binding at KOR” value at κ-opioid receptor (KOR) [2] is listed as “wash-resistant irreversible binding”.
